Experiments:
[1] = biological target: T1, CRTH2 (Homo sapiens, UniProt Q9Y5Y4); test: Human whole blood CD11b antagonist assay (CD11b expression in eosinophils challenged with 15-R-methyl-PGD2); format: cell-based; details: 37° C. 10 minutes preincubation, agonist 15R-Methyl-PGD2 10 nM, eosinophils gated by flow cytometry
T1 construct: endogenous in cells; host or cells: eosinophils in human whole blood
T1 sequence (Q9Y5Y4 1-395): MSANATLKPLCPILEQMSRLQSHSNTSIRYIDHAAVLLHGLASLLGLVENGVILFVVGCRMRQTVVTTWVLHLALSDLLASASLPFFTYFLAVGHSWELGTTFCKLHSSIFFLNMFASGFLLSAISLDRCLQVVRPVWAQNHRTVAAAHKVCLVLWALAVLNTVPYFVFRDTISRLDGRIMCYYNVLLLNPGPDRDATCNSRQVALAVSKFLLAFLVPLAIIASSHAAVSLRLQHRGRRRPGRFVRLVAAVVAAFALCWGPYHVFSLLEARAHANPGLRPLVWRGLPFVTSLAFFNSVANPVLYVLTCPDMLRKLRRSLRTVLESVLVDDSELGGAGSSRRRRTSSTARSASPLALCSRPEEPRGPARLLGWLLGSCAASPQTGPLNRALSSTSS
Description: Human Whole Blood […] Antagonist Assay (Modified from Nicholson, et al. Pulmonary Pharmacology and Therapeutics: 20 (2007); 52-59).
The potential CRTH2 antagonist activity of certain compounds was tested in human whole blood using an assay that tests the ability of the compounds to block the CD11b expression in eosinophils by 15-R-methyl-PGD2. A CRTH2 antagonist should block CD11b expression by subsequently added 15-Methyl-PGD2. Human whole blood (200 μL) was incubated at 37° C. for 10 minutes in the presence of various concentrations of test compounds before being challenged with the agonist 1-5R-Methyl-PGD2 (10 nM). Reactions were terminated by the addition of ice-cold PBS+0.5% BSA+2 mM EDTA (1 mL) and centrifugation (300×g for 5 minutes at 4° C.) Cells were then incubated at 4° C. for 10 min in the presence of human IgG. Cells were then incubated for 30-45 min with a mixture of PE-Cy5-labeled mouse anti-human CD16 (10 ul; BD Biosciences) and FITC-labeled mouse anti-human CD11b (10 μL; Beckman Coulter.) After rinsing (1 mL ice-cold PBS+0.5% BSA+2 mM EDTA), red blood cells were lysed by the addition of 1 mL ice-cold H2O to the cell pellet for 30 sec-1 min immediately followed by the addition of 3.5% NaCl (300 μL.) Cells were then rinsed (2×−1 ml ice cold PBS+0.5% BSA+2m MEDTA) and fixed in PBS containing 1% formaldehyde. The distribution of fluorescence intensities was measured by flow cytometry. Eosinophils were gated out on the basis of their granularity (high side scatter) and absence of CD-16. CD11b was then measured on this eosinophil population on the basis of fluorescence due to FITC.

[2] = biological target: T1, CRTH2; test: DPBS CD11b antagonist assay (CD11b expression in eosinophils challenged with 15R-Methyl-PGD2); format: cell-based; details: polymorphonuclear cells in PBS with CaCl2/MgCl2; agonist 15R-Methyl-PGD2 10 nM; eosinophils gated by flow cytometry
Description: DPBS CD111b Antagonist Assay.
The potential CRTH2 antagonist, activity of certain compounds was tested using a CD11b expression assay using essentially the method described by Monneret et al. (J Pharmacol Exp Ther 304:349-55, 2003). Briefly, polymorphonuclear cells (0.5 ml; 10^6/ml cells) in PBS containing 0.9 mM CaCl2 and 0.5 mM MgCl2) were preincubated with various concentrations of test compounds at room temperature for 10 minutes before they were challenged with the agonist 15R-Methyl-PGD2 (10 nM). The incubations were terminated by the addition of ice-cold FACSFlow (BD Biosciences; Cat#342003) and centrifugation (400 g for 5 minutes at 4° C.). The cells were then incubated for 30 minutes at 4° C. with a mixture of PE-labeled mouse anti-human VLA-4 (5 μl; BD Biosciences) and FITC-labeled mouse anti-human CD11b (10 μl; Beckman Coulter). The cells were then incubated with Optilyse C (0.25 ml; Beckman Coulter) for 15 minutes, centrifuged, and then fixed in PBS (0.4 ml; calcium and magnesium free) containing 1% formaldehyde. The distribution of fluorescence intensities among 60,000 cells was measured by flow cytometry. Eosinophils were gated out on the basis of their granularity (high side scatter) and labeling with VLA-4 (PE fluorescence). CD11b was then measured in the eosinophil region on the basis of fluorescence due to FITC. All data were corrected for the value obtained for the corresponding isotope control antibody.

SMILES | IC50 [1] | IC50 [2]
Cc1c(Cc2cc(OCC(F)(F)F)ccc2NS(=O)(=O)c2ccccc2)c2c(n1CC(=O)O)CC(C)(C)CC2=O [Compound I-36, 2-(2,6,6-Trimethyl-4-oxo-3-(2-(phenylsulfonamido)-5-(2,2,2-trifluoroethoxy)benzyl)-4,5,6,7-tetrahydro-1H-indol-1-yl)acetic acid] | 20 to 100 nM | 1 to 5 nM
Cc1c(Cc2ccccc2NS(=O)(=O)N2CCOCC2)c2c(n1CC(=O)O)CC(C)(C)CC2=O [Compound I-49] | 20 to 100 nM | 1 to 5 nM
CCOC(=O)N1CCN(S(=O)(=O)c2ccc(Cc3c4c(n(CC(=O)O)c3C)CCOC4)cc2)CC1 [Compound I-2, 2-(3-(4-(4-(Ethoxycarbonyl)piperazin-1-ylsulfonyl)benzyl)-2-methyl-6,7-dihydropyrano[4,3-b]pyrrol-1(4H)-yl)acetic acid] | 100 to 500 nM | 1 to 5 nM
Cc1c(Cc2ccccc2NS(=O)(=O)c2ccc(OCc3ccccc3)cc2)c2c(n1CC(=O)O)CC(C)(C)CC2=O [Compound I-46, 2-(3-(2-(4-(Benzyloxy)phenylsulfonamido)benzyl)-2,6,6-trimethyl-4-oxo-4,5,6,7-tetrahydro-1H-indol-1-yl)acetic acid] | 5 to 20 nM | < 1 nM
CCOC(=O)Cn1c(C)c(Cc2cccnc2S(=O)(=O)c2cccc(OC)c2)c2c1CC(C)(C)CC2=O [Compound I-11, Ethyl 2-(3-((2-(3-methoxyphenylsulfonyl)pyridin-3-yl)methyl)-2,6,6-trimethyl-4-oxo-4,5,6,7-tetrahydro-1H-indol-1-yl)acetate] | 500 to 3000 nM | 100 to 500 nM
Cc1c(Cc2ccccc2N(C)S(=O)(=O)c2ccccc2)c2c(n1CC(=O)O)CC(C)(C)CC2=O [Compound I-35, 2-(2,6,6-Trimethyl-3-(2-(N-methylphenylsulfonamido)benzyl)-4-oxo-4,5,6,7-tetrahydro-1H-indol-1-yl)acetic acid] | 20 to 100 nM | 1 to 5 nM
CCOC(=O)Cn1c(C)c(Cc2cccnc2S(=O)(=O)c2ccccc2)c2c1CC(C)(C)CC2=O [Compound I-9, ethyl 2-(2,6,6-trimethyl-4-oxo-3-((2-(phenylsulfonyl)pyridin-3-yl)methyl)-4,5,6,7-tetrahydro-1H-indol-1-yl)acetate] | 500 to 3000 nM | 100 to 500 nM
Cc1c(Cc2ccccc2S(=O)(=O)N2CCCC2)c2c(n1CC(=O)O)CCNC2=O [Compound I-39, 2-(2-Methyl-4-oxo-3-(2-(pyrrolidin-1-ylsulfonyl)benzyl)-4,5,6,7-tetrahydro-1H-pyrrolo[3,2-c]pyridin-1-yl)acetic acid] | 5 to 20 nM | < 1 nM
Cc1c(Cc2ccccc2NS(=O)(=O)N2CCCC2)c2c(n1CC(=O)O)CC(C)(C)CC2=O [Compound I-47] | 20 to 100 nM | 5 to 20 nM
Cc1c(Cc2sccc2S(=O)(=O)c2ccccc2)c2c(n1CC(=O)O)CC(C)(C)CC2=O [Compound I-42] | < 1 nM | < 1 nM
COc1ccc(S(=O)(=O)c2ncccc2Cc2c3c(n(CC(=O)O)c2C)CC(C)(C)CC3=O)cc1F [Compound I-21, 2-(3-((2-(3-Fluoro-4-methoxyphenylsulfonyl)pyridin-3-yl)methyl)-2,6,6-trimethyl-4-oxo-4,5,6,7-tetrahydro-1H-indol-1-yl)acetic acid] | 20 to 100 nM | < 1 nM
Cc1c(Cc2cccnc2S(=O)(=O)c2ccc(F)cc2)c2c(n1CC(=O)O)CC(C)(C)CC2=O [Compound I-5, 2-(3-((2-(4-fluorophenylsulfonyl)pyridin-3-yl)methyl)-2,6,6-trimethyl-4-oxo-4,5,6,7-tetrahydro-1H-indol-1-yl)acetic acid] | 5 to 20 nM | < 1 nM
CCN(c1ccccc1Cc1c2c(n(CC(=O)O)c1C)CC(C)(C)CC2=O)S(=O)(=O)c1ccc(C)cc1 [Compound I-38, 2-(3-(2-(N-Ethyl-4-methylphenylsulfonamido)benzyl)-2,6,6-trimethyl-4-oxo-4,5,6,7-tetrahydro-1H-indol-1-yl)acetic acid] | 500 to 3000 nM | 1 to 5 nM
Cc1c(Cc2cccnc2S(=O)(=O)c2ccc(Cl)cc2)c2c(n1CC(=O)O)CC(C)(C)CC2=O [Compound I-15, 2-(3-((2-(4-Chlorophenylsulfonyl)pyridin-3-yl)methyl)-2,6,6-trimethyl-4-oxo-4,5,6,7-tetrahydro-1H-indol-1-yl)acetic acid] | 5 to 20 nM | < 1 nM
Cc1c(Sc2ccccc2N(C)S(=O)(=O)c2ccccc2)c2c(n1CC(=O)O)CC(C)(C)CC2 [Compound I-53, 2-(2,6,6-trimethyl-3-(2-(N-methylphenylsulfonamido)phenylthio)-4,5,6,7-tetrahydro-1H-indol-1-yl)acetic acid] | 500 to 3000 nM | –
CCOC(=O)Cn1c(C)c(Cc2cccnc2S(=O)(=O)c2ccc(Cl)cc2)c2c1CC(C)(C)CC2=O [Compound I-14, Ethyl 2-(3-((2-(4-chlorophenylsulfonyl)pyridin-3-yl)methyl)-2,6,6-trimethyl-4-oxo-4,5,6,7-tetrahydro-1H-indol-1-yl)acetate] | 500 to 3000 nM | 100 to 500 nM
Cc1c(Cc2ccccc2S(=O)(=O)N2CCOCC2)c2c(n1CC(=O)O)CCNC2=O [Compound I-50, 2-(2-Methyl-3-(2-(morpholinosulfonyl)benzyl)-4-oxo-4,5,6,7-tetrahydro-1H-pyrrolo[3,2-c]pyridin-1-yl)acetic acid] | 1 to 5 nM | < 1 nM
CCOC(=O)Cn1c(C)c(Cc2cccnc2S(=O)(=O)c2ccc(OC)cc2)c2c1CC(C)(C)CC2=O [Compound I-6, ethyl 2-(3-((2-(4-methoxyphenylsulfonyl)pyridin-3-yl)methyl)-2,6,6-trimethyl-4-oxo-4,5,6,7-tetrahydro-1H-indol-1-yl)acetate] | 500 to 3000 nM | 5 to 20 nM
Cc1c(Cc2ccc(S(=O)(=O)c3ccccc3)s2)c2c(n1CC(=O)O)CC(C)(C)CC2=O [Compound I-26, 2-(2,6,6-Trimethyl-4-oxo-3-((5-(phenylsulfonyl)thiophen-2-yl)methyl)-4,5,6,7-tetrahydro-1H-indol-1-yl)acetic acid] | > 3000 nM | 100 to 500 nM
Cc1c(Cc2cccnc2S(=O)(=O)c2ccccc2)c2c(n1CC(=O)O)CC(C)(C)CC2=O [Compound I-3, 2-(2,6,6-trimethyl-4-oxo-3-((2-(phenylsulfonyl)pyridin-3-yl)methyl)-4,5,6,7-tetrahydro-1H-indol-1-yl)acetic acid] | 5 to 20 nM | < 1 nM
Cc1ccc(S(=O)(=O)N(C)c2ccccc2Cc2c3c(n(CC(=O)O)c2C)CC(C)(C)CC3=O)cc1 [Compound I-33, 2-(3-(2-(N,4-dimethylphenylsulfonamido)benzyl)-2,6,6-trimethyl-4-oxo-4,5,6,7-tetrahydro-1H-indol-1-yl)acetic acid] | 100 to 500 nM | 1 to 5 nM
Cc1c(Cc2cc3ccccc3n2S(=O)(=O)c2ccccc2)c2c(n1CC(=O)O)CCC(C)(C)C2 [Compound I-1, 2-(2,5,5-trimethyl-3-((1-(phenylsulfonyl)-1H-indol-2-yl)methyl)-4,5,6,7-tetrahydro-1H-indol-1-yl)acetic acid] | – | < 1 nM

From US20130259830A1, “CRTH2 MODULATORS” (Ironwood Pharmaceuticals, Inc., priority 2010, published 2013)
